Reference: US11633459B2, “GIP derivatives and uses thereof” (priority 2018, dated 2023)
*1 amine or outer side, *2 acyl side, *3 side chain or, on linkers, in order; H or OH if unused. Where a SMILES comes first, the peptide text is derived from it. Where no end group is shown, it is not given here. Side-chain parts run from the residue outwards. [ ]: non-standard residue; d: D form. The star is where a group is joined. X1 = O=C(O)CCCCCCCCCCCCCCCCCCC(=O)NCC1CCC(C(=O)*)CC1; C18 diacid = O=C(O)CCCCCCCCCCCCCCCCC(=O)*; γGlu = O=C(O)[C@H](CCC(=O)[*:2])N[*:1]; Nle = CCCC[C@H](N)C(=O)O; AEEA = NCCOCCOCC(=O)O; Aib = CC(C)(N)C(=O)O

Columns and labels:
human GIP receptor = biological target: T1, human GIP receptor (Homo sapiens, UniProt P48546); assay: In vitro potency, CRE luciferase reporter gene assay, whole BHK cells expressing human GIP receptor; assay type: cell-based; conditions: 0.2% HSA
T1 construct: expressed in transfected cells; host or cells: BHK cells (parent line BHKTS13), clone BHK CRE luc2P hGIPR clone #5
T1 sequence (P48546 22-466): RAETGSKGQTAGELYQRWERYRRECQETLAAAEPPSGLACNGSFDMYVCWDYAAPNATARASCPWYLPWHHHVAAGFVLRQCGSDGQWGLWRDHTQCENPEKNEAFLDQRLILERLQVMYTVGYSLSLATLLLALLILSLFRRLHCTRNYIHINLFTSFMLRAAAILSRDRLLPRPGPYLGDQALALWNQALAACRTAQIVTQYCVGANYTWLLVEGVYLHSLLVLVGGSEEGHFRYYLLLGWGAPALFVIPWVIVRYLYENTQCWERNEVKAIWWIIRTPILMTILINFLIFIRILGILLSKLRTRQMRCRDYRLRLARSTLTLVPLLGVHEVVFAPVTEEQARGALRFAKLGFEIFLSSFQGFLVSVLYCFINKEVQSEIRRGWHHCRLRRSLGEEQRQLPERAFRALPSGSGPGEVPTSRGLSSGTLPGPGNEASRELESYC
Protocol: (§1) In Vitro Potency (CRE Luciferase; Whole Cells)
(§2) The in vitro potency is the measure of human GIP, GLP-1 or glucagon receptor activation, respectively, in a whole cell assay.
(§3) In vitro potency was determined by measuring the response of the human GIP, GLP-1 or glucagon receptor in a reporter gene assay in individual cell lines. […] When the respective receptor is activated it results in the production of cAMP, which in turn results in the luciferase protein being expressed. When assay incubation is completed the luciferase substrate (luciferin) is added and the enzyme converts luciferin to oxyluciferin to produce bioluminescence. The luminescence is measured as the readout for the assay.
(§4) The cells were derived from a clone containing the CRE luciferase element and were established by further transfection with the respective receptor to obtain the current clone.
(§5) The cells were cultured at 5% CO2 in Cell Culture Medium. They were aliquoted and stored in liquid nitrogen. The cells were kept in passage and were seeded out the day before each assay.
(§6) The Assay Buffer consisted of 1% ovalbumin and 0.1% Pluronic F-68 in Assay Medium with the addition of human serum albumin at twice the indicated concentrations.
(§7) 1) Cells were plated at 5000 cells/well and incubated overnight.
(§8) 2) Cells were washed three times in PBS.
(§9) 3) Assay Medium (50 μl aliquot) with or without serum albumin was added to each well in the assay plate.
(§10) 4) Stocks of the test compounds and reference compounds were diluted to a concentration of 0.2 μM in Assay Buffer. […] 8) The cells were washed three times with PBS plus some liquid in each well. 9) A 100 μl aliquot of steadylite plus reagent was added to each well of the assay plate (reagent was light sensitive). 10) Each assay plate was covered with aluminum foil to protect it from light and shaken for 30 min at room temperature. 11) Each assay plate was read in a microtiter plate reader. Calculations and Results
The data from the microtiter plate reader was transferred to GraphPad Prism software. The software performs a non-linear regression (log(agonist) vs response).
A minimum of two replicates was measured for each sample. The reported values are averages of the replicates.

human GLP-1 receptor = biological target: T2, human GLP-1 receptor (Homo sapiens, UniProt P43220); assay: In vitro potency, CRE luciferase reporter gene assay, whole BHK cells expressing human GLP-1 receptor; assay type: cell-based; conditions: 0.2% HSA
T2 construct: expressed in transfected cells; host or cells: BHK cells (parent line BHKTS13), clone BHK CRE luc2P hGLP-1R clone #6
Protocol: as §1, §2, §3, §4, §5, §6, §7, §8, §9, §10
(§11) The data from the microtiter plate reader was transferred to GraphPad Prism software. […]
(§12) A minimum of two replicates was measured for each sample. […]

human glucagon receptor = biological target: T3, human glucagon receptor (Homo sapiens, UniProt P47871); assay: In vitro potency, CRE luciferase reporter gene assay, whole BHK cells expressing human glucagon receptor; assay type: cell-based; conditions: 0.2% HSA
T3 construct: expressed in transfected cells; host or cells: BHK cells (parent line BHKTS13), clone BHK CRE luc2P hGCGR clone #18
Protocol: as §1, §2, §3, §4, §5, §6, §7, §8, §9, §10, §11, §12

[1] = Pharmacokinetic study in minipigs, terminal half-life after i.v. administration; conditions: female, Göttingen, minipig, plasma, iv, 5 nmol/kg
Protocol: Pharmacokinetic Study in Minipigs
The purpose of this study is to determine the half-life in vivo of the derivatives of the present invention after i.v. administration to minipigs, i.e. the prolongation of their time in the body and thereby their time of action. This is done in a pharmacokinetic (PK) study, where the terminal half-life of the derivative in question is determined. By terminal half-life is generally meant the period of time it takes to halve a certain plasma concentration, measured after the initial distribution phase.
Female Göttingen minipigs were obtained from Ellegaard Göttingen Minipigs (Dalmose, Denmark) approximately 7-14 months of age and weighing from approximately 16-35 kg were used in the studies. The minipigs were housed individually and fed restrictedly once daily with SDS minipig diet (Special Diets Services, Essex, UK).
After at 3 weeks of acclimatisation two permanent central venous catheters were implanted in vena cava caudalis in each animal. The animals were allowed 1 week recovery after the surgery, and were then used for repeated pharmacokinetic studies with a suitable wash-out period between successive derivative dosing.
Blood samples (for example 0.8 ml) were collected in EDTA buffer (8 mM) and then centrifuged at 4° C. and 1942G for 10 minutes.
Individual plasma concentration-time profiles were analysed by a non-compartmental model in Phoenix WinNonLin ver. […] (Pharsight Inc., Mountain View, Calif., USA), and the resulting terminal half-lives (harmonic mean) determined.

T2 sequence (P43220 24-463): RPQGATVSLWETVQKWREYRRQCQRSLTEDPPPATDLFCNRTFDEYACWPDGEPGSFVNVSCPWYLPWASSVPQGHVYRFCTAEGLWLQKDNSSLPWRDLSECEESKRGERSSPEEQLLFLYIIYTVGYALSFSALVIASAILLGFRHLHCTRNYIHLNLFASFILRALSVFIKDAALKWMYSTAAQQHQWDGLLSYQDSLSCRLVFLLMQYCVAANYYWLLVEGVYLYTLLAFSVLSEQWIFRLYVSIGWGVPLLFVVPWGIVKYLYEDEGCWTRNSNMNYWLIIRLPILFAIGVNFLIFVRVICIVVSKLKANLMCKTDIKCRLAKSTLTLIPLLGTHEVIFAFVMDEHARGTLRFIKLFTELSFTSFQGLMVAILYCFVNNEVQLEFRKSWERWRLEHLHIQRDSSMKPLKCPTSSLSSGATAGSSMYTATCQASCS
T3 sequence (P47871 26-477): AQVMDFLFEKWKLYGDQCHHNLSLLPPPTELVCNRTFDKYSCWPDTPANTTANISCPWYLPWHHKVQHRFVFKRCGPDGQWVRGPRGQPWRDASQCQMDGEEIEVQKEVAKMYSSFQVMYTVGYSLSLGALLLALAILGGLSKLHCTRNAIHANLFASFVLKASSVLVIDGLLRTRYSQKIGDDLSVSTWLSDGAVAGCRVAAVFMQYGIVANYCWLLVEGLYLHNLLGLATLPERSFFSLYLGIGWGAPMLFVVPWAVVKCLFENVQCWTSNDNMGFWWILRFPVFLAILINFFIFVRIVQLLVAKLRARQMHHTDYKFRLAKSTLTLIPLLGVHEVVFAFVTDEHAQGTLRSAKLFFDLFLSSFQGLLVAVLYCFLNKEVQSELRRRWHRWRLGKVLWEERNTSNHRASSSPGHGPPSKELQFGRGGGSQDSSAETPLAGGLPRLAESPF

H-Y[Aib]EGTFISDYSIA[Nle]DKIHQQDFVK([γGlu-γGlu-γGlu-C18 diacid])WLLAQKGKEDDWKHNITQ [Compound 39, N{Epsilon-24}-[(4S)-4-carboxy-4-[[(4S)-4-carboxy-4-[[(4S)-4-carboxy-4-(17-carboxyheptadecanoylamino)butanoyl]amino]butanoyl]amino]butanoyl]-[Aib2,Nle14,Lys24,Glu33,Asp34]-hGIP]
EC50 (human GIP receptor): 5.9 pM | EC50 (human GLP-1 receptor): > 100000 pM | EC50 (human glucagon receptor): > 100000 pM

CCCC[C@H](NC(=O)[C@H](C)NC(=O)[C@@H](NC(=O)[C@H](CO)NC(=O)[C@H](Cc1ccc(O)cc1)NC(=O)[C@H](CC(=O)O)NC(=O)[C@H](CO)NC(=O)[C@@H](NC(=O)[C@H](Cc1ccccc1)NC(=O)[C@@H](NC(=O)CNC(=O)[C@H](CCC(=O)O)NC(=O)C(C)(C)NC(=O)[C@@H](N)Cc1ccc(O)cc1)[C@@H](C)O)[C@@H](C)CC)[C@@H](C)CC)C(=O)N[C@@H](CC(=O)O)C(=O)N[C@@H](CCCCN)C(=O)N[C@H](C(=O)N[C@@H](CCCNC(=N)N)C(=O)N[C@@H](CCC(N)=O)C(=O)NC(C)(C)C(=O)N[C@@H](CC(=O)O)C(=O)N[C@@H](Cc1ccccc1)C(=O)N[C@H](C(=O)N[C@@H](CCCCNC(=O)CC[C@H](NC(=O)CC[C@H](NC(=O)CC[C@H](NC(=O)C1CCC(CNC(=O)CCCCCCCCCCCCCCCCCCC(=O)O)CC1)C(=O)O)C(=O)O)C(=O)O)C(=O)N[C@@H](Cc1c[nH]c2ccccc12)C(=O)N[C@@H](CC(C)C)C(=O)N[C@@H](CC(C)C)C(=O)N[C@@H](C)C(=O)N[C@@H](CCC(N)=O)C(=O)N[C@@H](CCCCN)C(=O)NCC(=O)O)C(C)C)[C@@H](C)CC (stereo partly drawn) [Compound 12, N{Epsilon-24}-[(4S)-4-carboxy-4-[[(4S)-4-carboxy-4-[[(4S)-4-carboxy-4-[[4-[(19-carboxynonadecanoylamino)methyl]cyclohexanecarbonyl]amino]butanoyl]amino]-butanoyl]amino]butanoyl]-[Aib2,Nle14,Arg18,Aib20,Lys24]-hGIP(1-31)] (H-Y[Aib]EGTFISDYSIA[Nle]DKIRQ[Aib]DFVK([γGlu-γGlu-γGlu-X1])WLLAQKG-OH)
EC50 (human GIP receptor): 71.2 pM | half-life [1]: 132 h

CCCC[C@H](NC(=O)[C@H](C)NC(=O)[C@@H](NC(=O)[C@H](CO)NC(=O)[C@H](Cc1ccc(O)cc1)NC(=O)[C@H](CC(=O)O)NC(=O)[C@H](CO)NC(=O)[C@@H](NC(=O)[C@H](Cc1ccccc1)NC(=O)[C@@H](NC(=O)CNC(=O)[C@H](CCC(=O)O)NC(=O)C(C)(C)NC(=O)[C@@H](N)Cc1ccc(O)cc1)[C@@H](C)O)[C@@H](C)CC)[C@@H](C)CC)C(=O)N[C@@H](CC(=O)O)C(=O)N[C@@H](CCCCN)C(=O)N[C@H](C(=O)N[C@@H](CCCNC(=N)N)C(=O)N[C@@H](CCC(N)=O)C(=O)N[C@@H](CCC(N)=O)C(=O)N[C@@H](CC(=O)O)C(=O)N[C@@H](Cc1ccccc1)C(=O)N[C@H](C(=O)N[C@@H](CCCCNC(=O)COCCOCCNC(=O)COCCOCCNC(=O)CC[C@H](NC(=O)C1CCC(CNC(=O)CCCCCCCCCCCCCCCCCCC(=O)O)CC1)C(=O)O)C(=O)N[C@@H](Cc1c[nH]c2ccccc12)C(=O)N[C@@H](CC(C)C)C(=O)N[C@@H](CC(C)C)C(=O)N[C@@H](C)C(=O)N[C@@H](CCC(N)=O)C(=O)N[C@@H](CCCCN)C(=O)NCC(=O)O)C(C)C)[C@@H](C)CC (stereo partly drawn) [Compound 3, N{Epsilon-24}-[2-[2-[2-[[2-[2-[2-[[(4S)-4-carboxy-4-[[4-[(19-carboxynonadecanoylamino)methyl]cyclohexanecarbonyl]amino]butanoyl]amino]ethoxy]ethoxy]acetyl]amino]ethoxy]ethoxy]acetyl]-[Aib2,Nle14,Arg18,Lys24]-hGIP(1-31)]
EC50 (human GIP receptor): 44.7 pM | half-life [1]: 96 h

Y[Aib]EGTFISDYSIA[Nle]DKIHQQDFVK([AEEA-AEEA-γGlu-C18 diacid])WLLAQKGKEDDWKHNITQ [Compound 36, N{Epsilon-24}-[2-[2-[2-[[2-[2-[2-[[(4S)-4-carboxy-4-(17-carboxyheptadecanoylamino)butanoyl]amino]ethoxy]ethoxy]acetyl]amino]ethoxy]ethoxy]acetyl]-[Aib2,Nle14,Lys24,Glu33,Asp34]-hGIP]
EC50 (human GIP receptor): 5.97 pM | EC50 (human GLP-1 receptor): > 100000 pM | EC50 (human glucagon receptor): > 100000 pM

CCCC[C@H](NC(=O)[C@H](C)NC(=O)[C@@H](NC(=O)[C@H](CO)NC(=O)[C@H](Cc1ccc(O)cc1)NC(=O)[C@H](CC(=O)O)NC(=O)[C@H](CO)NC(=O)[C@@H](NC(=O)[C@H](Cc1ccccc1)NC(=O)[C@@H](NC(=O)CNC(=O)[C@H](CCC(=O)O)NC(=O)C(C)(C)NC(=O)[C@@H](N)Cc1ccc(O)cc1)[C@@H](C)O)[C@@H](C)CC)[C@@H](C)CC)C(=O)N[C@@H](CC(=O)O)C(=O)N[C@@H](CCCCN)C(=O)N[C@H](C(=O)N[C@@H](CCCNC(=N)N)C(=O)N[C@@H](CCC(N)=O)C(=O)N[C@@H](CCC(N)=O)C(=O)N[C@@H](CC(=O)O)C(=O)N[C@@H](Cc1ccccc1)C(=O)N[C@H](C(=O)N[C@@H](CCCCNC(=O)CC[C@H](NC(=O)CC[C@H](NC(=O)CC[C@H](NC(=O)C1CCC(CNC(=O)CCCCCCCCCCCCCCCCCCC(=O)O)CC1)C(=O)O)C(=O)O)C(=O)O)C(=O)N[C@@H](Cc1c[nH]c2ccccc12)C(=O)N[C@@H](CC(C)C)C(=O)N[C@@H](CC(C)C)C(=O)N[C@@H](C)C(=O)N[C@@H](CCC(N)=O)C(=O)N[C@@H](CCCCN)C(=O)NCC(=O)O)C(C)C)[C@@H](C)CC (stereo partly drawn) [Compound 4, N{Epsilon-24}-[(4S)-4-carboxy-4-[[(4S)-4-carboxy-4-[[(4S)-4-carboxy-4-[[4-[(19-carboxynonadecanoylamino)methyl]cyclohexanecarbonyl]amino]butanoyl]amino]butanoyl]amino]butanoyl]-[Aib2,Nle14,Arg18,Lys24]-hGIP(1-31)]
EC50 (human GIP receptor): 72.1 pM | half-life [1]: 124 h

CCCC[C@H](NC(=O)[C@H](C)NC(=O)[C@@H](NC(=O)[C@H](CO)NC(=O)[C@H](Cc1ccc(O)cc1)NC(=O)[C@H](CC(=O)O)NC(=O)[C@H](CO)NC(=O)[C@@H](NC(=O)[C@H](Cc1ccccc1)NC(=O)[C@@H](NC(=O)CNC(=O)[C@H](CCC(=O)O)NC(=O)C(C)(C)NC(=O)[C@@H](Cc1ccc(O)cc1)NC(C)=O)[C@@H](C)O)[C@@H](C)CC)[C@@H](C)CC)C(=O)N[C@@H](CC(=O)O)C(=O)N[C@@H](CCCCN)C(=O)N[C@H](C(=O)N[C@@H](Cc1c[nH]cn1)C(=O)N[C@@H](CCC(N)=O)C(=O)N[C@@H](CCC(N)=O)C(=O)N[C@@H](CC(=O)O)C(=O)N[C@@H](Cc1ccccc1)C(=O)N[C@H](C(=O)N[C@@H](CCCCNC(=O)CC[C@H](NC(=O)CC[C@H](NC(=O)CC[C@H](NC(=O)C1CCC(CNC(=O)CCCCCCCCCCCCCCCCCCC(=O)O)CC1)C(=O)O)C(=O)O)C(=O)O)C(=O)N[C@@H](Cc1c[nH]c2ccccc12)C(=O)N[C@@H](CC(C)C)C(=O)N[C@@H](CC(C)C)C(=O)N[C@@H](C)C(=O)N[C@@H](CCC(N)=O)C(=O)N[C@@H](CCCCN)C(=O)N1CCC[C@H]1C(N)=O)C(C)C)[C@@H](C)CC (stereo partly drawn) [Compound 32, N{1}-acetyl,N{Epsilon-24}-[(4S)-4-carboxy-4-[[(4S)-4-carboxy-4-[[(4S)-4-carboxy-4-[[4-[(19-carboxynonadecanoylamino)methyl]cyclohexanecarbonyl]amino]butanoyl]-amino]butanoyl]amino]butanoyl]-[D-Tyr1,Aib2, Nle14,Lys24,Pro31]-hGIP(1-31) amide] (Ac-[dY][Aib]EGTFISDYSIA[Nle]DKIHQQDFVK([γGlu-γGlu-γGlu-X1])WLLAQKP-NH2)
half-life [1]: 121 h

H-Y[Aib]EGTFISDYSIA[Nle]DKIHQQDFVK([γGlu-γGlu-γGlu-C18 diacid])WLLAQKGKEEDWKHNITQ [Compound 38, N{Epsilon-24}-[(4S)-4-carboxy-4-[[(4S)-4-carboxy-4-[[(4S)-4-carboxy-4-(17-carboxyheptadecanoylamino)butanoyl]amino]butanoyl]amino]butanoyl]-[Aib2,Nle14,Lys24,Glu33,Glu34]-hGIP]
EC50 (human GIP receptor): 9 pM | EC50 (human GLP-1 receptor): > 100000 pM | EC50 (human glucagon receptor): > 100000 pM
